Reference: patent US20240092784A1, “CONDENSED HETEROCYCLIC COMPOUND” (NISSAN CHEMICAL CORPORATION, priority 2020, published 2024)

These compounds were tested against human SPR (Homo sapiens (Human), UniProt P35270) (assay: Evaluation Example 2: Measurement of human SPR inhibitory activity (seven concentrations, sepiapterin absorbance at 420 nm)). Settings: Evaluation Example 2, seven concentrations 0.14 nM to 100 nM, 240 minutes at room temperature, read-out: IC50.
human SPR, sequence (P35270 whole entry): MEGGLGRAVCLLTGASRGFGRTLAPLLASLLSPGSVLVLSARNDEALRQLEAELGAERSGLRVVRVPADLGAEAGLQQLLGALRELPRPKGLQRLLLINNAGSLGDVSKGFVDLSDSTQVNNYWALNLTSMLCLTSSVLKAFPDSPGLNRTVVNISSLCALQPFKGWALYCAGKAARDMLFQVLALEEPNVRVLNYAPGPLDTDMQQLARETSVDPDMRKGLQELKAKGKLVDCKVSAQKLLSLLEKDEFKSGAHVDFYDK
Format: biochemical
In short: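 His-tagged full-length human SPR (1-261) was expressed in E. coli and the tag removed. Enzyme at 150 ng/mL in 100 mM Tris-HCl pH 7.5/0.01% BSA was mixed with compound (0.14–100 nM, seven points), 120 μM sepiapterin and 160 μM NADPH, both as added-solution concentrations. After 240 min at room temperature, remaining sepiapterin was read at 420 nm to give percent inhibition.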
For `C[C@@H](Nc1cc2n(CC(C)(C)C)c(=O)c(C(=O)NC3CC3)c(O)n2n1)c1ccccn1` [Synthesis Example 327, (R)-N-Cyclopropyl-7-hydroxy-4-neopentyl-5-oxo-2-((1-(pyridin-2-yl)ethyl)amino)-4,5-dihydropyrazolo[1,5-a]pyrimidine-6-carboxamide], the IC50 was 2.39 nM.
Compound `Cc1nccnc1Nc1cc2n(CC(C)(C)C)c(=O)c(C(=O)NC3CC3)c(O)n2n1` [Synthesis Example 328, N-Cyclopropyl-7-hydroxy-2-((3-methylpyrazin-2-yl)amino)-4-neopentyl-5-oxo-4,5-dihydropyrazolo[1,5-a]pyrimidine-6-carboxamide] has an IC50 of 1.56 nM.
With `CC(C)(C)Cn1c(=O)c(C(=O)NC2CC2)c(O)n2nc(Nc3cc(C#N)ncn3)cc12` [Synthesis Example 329, 2-((6-Cyanopyrimidin-4-yl)amino)-N-cyclopropyl-7-hydroxy-4-neopentyl-5-oxo-4,5-dihydropyrazolo[1,5-a]pyrimidine-6-carboxamide] the IC50 was 1.69 nM.
`Cc1cncc(Nc2cc3n(CC(C)(C)C)c(=O)c(C(=O)NC4CC4)c(O)n3n2)n1` [Synthesis Example 330, N-Cyclopropyl-7-hydroxy-2-((6-methylpyrazin-2-yl)amino)-4-neopentyl-5-oxo-4,5-dihydropyrazolo[1,5-a]pyrimidine-6-carboxamide] was tested, and the IC50 was 1.83 nM.
Work on `CC(C)(C)Cn1c(=O)c(C(=O)NC2CC2)c(O)n2nc(Nc3cncc(C(F)(F)F)n3)cc12` [Synthesis Example 331, N-Cyclopropyl-7-hydroxy-4-neopentyl-5-oxo-2-((6-(trifluoromethyl)pyrazin-2-yl)amino)-4,5-dihydropyrazolo[1,5-a]pyrimidine-6-carboxamide] yielded an IC50 of 1.71 nM.
Work on `COc1nccc(Nc2cc3n(CC(C)(C)C)c(=O)c(C(=O)NC4CC4)c(O)n3n2)n1` [Synthesis Example 332, N-Cyclopropyl-7-hydroxy-2-((2-methoxypyrimidin-4-yl)amino)-4-neopentyl-5-oxo-4,5-dihydropyrazolo[1,5-a]pyrimidine-6-carboxamide] yielded an IC50 of 2.06 nM.
Compound `Cc1cnc(Nc2cc3n(CC(C)(C)C)c(=O)c(C(=O)NC4CC4)c(O)n3n2)cn1` [Synthesis Example 333, N-Cyclopropyl-7-hydroxy-2-((5-methylpyrazin-2-yl)amino)-4-neopentyl-5-oxo-4,5-dihydropyrazolo[1,5-a]pyrimidine-6-carboxamide] has an IC50 of 1.86 nM.
In the case of `Cc1nccc(Nc2cc3n(CC(C)(C)C)c(=O)c(C(=O)NC4CC4)c(O)n3n2)n1` [Synthesis Example 334, N-Cyclopropyl-7-hydroxy-2-((2-methylpyrimidin-4-yl)amino)-4-neopentyl-5-oxo-4,5-dihydropyrazolo[1,5-a]pyrimidine-6-carboxamide], the IC50 is reported as 1 nM.
With `CC(C)(C)Cn1c(=O)c(C(=O)NC2CC2)c(O)n2nc(Nc3cnc(C(=O)N4CCOCC4)cn3)cc12` [Synthesis Example 335, N-Cyclopropyl-7-hydroxy-2-((5-(morpholine-4-carbonyl)pyrazin-2-yl)amino)-4-neopentyl-5-oxo-4,5-dihydropyrazolo[1,5-a]pyrimidine-6-carboxamide] the IC50 was 0.73 nM.
For `CCCc1cnc(Nc2cc3n(CC(C)(C)C)c(=O)c(C(=O)NC4CC4)c(O)n3n2)cn1` [Synthesis Example 336, N-Cyclopropyl-7-hydroxy-4-neopentyl-5-oxo-2-((5-propylpyrazin-2-yl)amino)-4,5-dihydropyrazolo[1,5-a]pyrimidine-6-carboxamide], the IC50 was 7.13 nM.
For `CC(C)(C)Cn1c(=O)c(C(=O)NC2CC2)c(O)n2nc(Nc3cnc(C(F)F)cn3)cc12` [Synthesis Example 337, N-Cyclopropyl-2-((5-(difluoromethyl)pyrazin-2-yl)amino)-7-hydroxy-4-neopentyl-5-oxo-4,5-dihydropyrazolo[1,5-a]pyrimidine-6-carboxamide], the IC50 was 1.48 nM.
In the case of `CCOc1cnc(Nc2cc3n(CC(C)(C)C)c(=O)c(C(=O)NC4CC4)c(O)n3n2)cn1` [Synthesis Example 338, N-Cyclopropyl-2-((5-ethoxypyrazin-2-yl)amino)-7-hydroxy-4-neopentyl-5-oxo-4,5-dihydropyrazolo[1,5-a]pyrimidine-6-carboxamide], the IC50 is reported as 2.73 nM.
`Cc1cc(Nc2cc3n(CC(C)(C)C)c(=O)c(C(=O)NC4CC4)c(O)n3n2)ncn1` [Synthesis Example 339, N-Cyclopropyl-7-hydroxy-2-((6-methylpyrimidin-4-yl)amino)-4-neopentyl-5-oxo-4,5-dihydropyrazolo[1,5-a]pyrimidine-6-carboxamide] showed an IC50 of 4.57 nM.
In the case of `Cc1cncnc1Nc1cc2n(CC(C)(C)C)c(=O)c(C(=O)NC3CC3)c(O)n2n1` [Synthesis Example 340, N-Cyclopropyl-7-hydroxy-2-((5-methylpyrimidin-4-yl)amino)-4-neopentyl-5-oxo-4,5-dihydropyrazolo[1,5-a]pyrimidine-6-carboxamide], the IC50 is reported as 1.92 nM.
Work on `CC(C)(C)Cn1c(=O)c(C(=O)NC2CC2)c(O)n2nc(N3CC[C@@H](N)C3)cc12` [Synthesis Example 341, (R)-2-(3-Aminopyrrolidin-1-yl)-N-cyclopropyl-7-hydroxy-4-neopentyl-5-oxo-4,5-dihydropyrazolo[1,5-a]pyrimidine-6-carboxamide] yielded an IC50 of 2.6 nM.
Work on `CC(C)(C)Cn1c(=O)c(C(=O)NC2CC2)c(O)n2nc(N3CC[C@H](N)C3)cc12` [Synthesis Example 342, (S)-2-(3-Aminopyrrolidin-1-yl)-N-cyclopropyl-7-hydroxy-4-neopentyl-5-oxo-4,5-dihydropyrazolo[1,5-a]pyrimidine-6-carboxamide] yielded an IC50 of 2.31 nM.
`CC(C)(C)Cn1c(=O)c(C(=O)NC2CC2)c(O)n2nc(NC3CCCCC3)cc12` [Synthesis Example 343, 2-(Cyclohexylamino)-N-cyclopropyl-7-hydroxy-4-neopentyl-5-oxo-4,5-dihydropyrazolo[1,5-a]pyrimidine-6-carboxamide] was tested, and the IC50 was 4.71 nM.
`CC(C)(C)Cn1c(=O)c(C(=O)NC2CC2)c(O)n2nc(Nc3cnc(C(C)(F)F)cn3)cc12` [Synthesis Example 344, N-Cyclopropyl-2-((5-(1,1-difluoroethyl)pyrazin-2-yl)amino)-7-hydroxy-4-neopentyl-5-oxo-4,5-dihydropyrazolo[1,5-a]pyrimidine-6-carboxamide] gave an IC50 of 1.69 nM.
`CC(C)(C)Cn1c(=O)c(C(=O)NC2CC2)c(O)n2nc(Nc3cncc(C(N)=O)n3)cc12` [Synthesis Example 345, 2-((6-Carbamoylpyrazin-2-yl)amino)-N-cyclopropyl-7-hydroxy-4-neopentyl-5-oxo-4,5-dihydropyrazolo[1,5-a]pyrimidine-6-carboxamide] showed an IC50 of 0.92 nM.
Compound `Cn1ccc(Nc2cc3n(CC(C)(C)C)c(=O)c(C(=O)NC4CC4)c(O)n3n2)n1` [Synthesis Example 346, N-Cyclopropyl-7-hydroxy-2-((1-methyl-1H-pyrazol-3-yl)amino)-4-neopentyl-5-oxo-4,5-dihydropyrazolo[1,5-a]pyrimidine-6-carboxamide] has an IC50 of 1.77 nM.
`CC(C)(C)Cn1c(=O)c(C(=O)NCC(F)(F)F)c(O)n2nc(Nc3cnccn3)cc12` [Synthesis Example 347, 7-Hydroxy-4-neopentyl-5-oxo-2-(pyrazin-2-ylamino)-N-(2,2,2-trifluoroethyl)-4,5-dihydropyrazolo[1,5-a]pyrimidine-6-carboxamide] was tested, and the IC50 was 1.87 nM.
`CC(C)Cn1c(=O)c(C(=O)NCC(F)(F)F)c(O)n2nc(Nc3cnccn3)cc12` [Synthesis Example 348, 7-Hydroxy-4-isobutyl-5-oxo-2-(pyrazin-2-ylamino)-N-(2,2,2-trifluoroethyl)-4,5-dihydropyrazolo[1,5-a]pyrimidine-6-carboxamide] showed an IC50 of 2.84 nM.
Work on `CC(C)(C)Cn1c(=O)c(C(=O)NC2CC2)c(O)n2nc(Nc3cnc(C(C)(C)O)cn3)cc12` [Synthesis Example 349, N-Cyclopropyl-7-hydroxy-2-((5-(2-hydroxypropan-2-yl)pyrazin-2-yl)amino)-4-neopentyl-5-oxo-4,5-dihydropyrazolo[1,5-a]pyrimidine-6-carboxamide] yielded an IC50 of 1.36 nM.
For `O=C(NC1CC1)c1c(O)n2nc(Nc3cnccn3)cc2n(CC2CCOCC2)c1=O` [Synthesis Example 350, N-Cyclopropyl-7-hydroxy-5-oxo-2-(pyrazin-2-ylamino)-4-((tetrahydro-2H-pyran-4-yl)methyl)-4,5-dihydropyrazolo[1,5-a]pyrimidine-6-carboxamide], the IC50 was 0.75 nM.
Work on `CC(C)(C)Cn1c(=O)c(C(=O)NC2CC2)c(O)n2nc(Nc3ccnc(C(N)=O)n3)cc12` [Synthesis Example 351, 2-((2-Carbamoylpyrimidin-4-yl)amino)-N-cyclopropyl-7-hydroxy-4-neopentyl-5-oxo-4,5-dihydropyrazolo[1,5-a]pyrimidine-6-carboxamide] yielded an IC50 of 0.9 nM.
In the case of `CC(C)(C)Cn1c(=O)c(C(=O)NC2CC2)c(O)n2nc(Nc3cnc(C(=O)NCC(F)(F)F)cn3)cc12` [Synthesis Example 352, N-Cyclopropyl-7-hydroxy-4-neopentyl-5-oxo-2-((5-((2,2,2-trifluoroethyl)carbamoyl)pyrazin-2-yl)amino)-4,5-dihydropyrazolo[1,5-a]pyrimidine-6-carboxamide], the IC50 is reported as 1.04 nM.
Work on `CC(C)(C)Cn1c(=O)c(C(=O)NC2CC2)c(O)n2nc(Nc3cnc(C(=O)NCC(F)F)cn3)cc12` [Synthesis Example 353, N-Cyclopropyl-2-((5-((2,2-difluoroethyl)carbamoyl)pyrazin-2-yl)amino)-7-hydroxy-4-neopentyl-5-oxo-4,5-dihydropyrazolo[1,5-a]pyrimidine-6-carboxamide] yielded an IC50 of 0.82 nM.
`CC(C)(C)Cn1c(=O)c(C(=O)NC2CC2)c(O)n2nc(Nc3cnc(C(=O)NCC(C)(C)O)cn3)cc12` [Synthesis Example 354, N-Cyclopropyl-7-hydroxy-2-((5-((2-hydroxy-2-methylpropyl)carbamoyl)pyrazin 2-yl)amino)-4-neopentyl-5-oxo-4,5-dihydropyrazolo[1,5-a]pyrimidine-6-carboxamide] gave an IC50 of 0.86 nM.
